From patent publication US20200079758A1, “[4-(PHENYLSULFONYL)PIPERAZIN-1-YL](1H-1,2,3-TRIAZOL-4-YL)METHANONES” (priority 2016, published 2020) come the findings set out here.

The target in the assay is T1, recombinant human AKR1C3 (Homo sapiens, UniProt P42330).
T1 construct: GST (cleaved yes); made in house; host or cells: E. coli
T1 sequence (P42330 1-323): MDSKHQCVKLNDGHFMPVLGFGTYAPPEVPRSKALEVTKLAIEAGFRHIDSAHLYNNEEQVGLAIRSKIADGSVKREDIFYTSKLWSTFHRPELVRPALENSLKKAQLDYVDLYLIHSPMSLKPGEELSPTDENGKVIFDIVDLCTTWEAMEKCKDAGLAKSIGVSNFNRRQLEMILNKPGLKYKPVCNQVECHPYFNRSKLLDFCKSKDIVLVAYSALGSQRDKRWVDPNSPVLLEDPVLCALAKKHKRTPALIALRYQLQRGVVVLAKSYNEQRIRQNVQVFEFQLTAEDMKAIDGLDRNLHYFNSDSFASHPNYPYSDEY
The assay can be described thus: AKR1C3-inhibitory activity assay (generation of Coumberol from Coumberone). Type of assay: biochemical. The note with it: Coumberone 0.3 μM, NADPH 10 μM, 22° C., typically 90 min, average or median values. An outline of the steps:
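Recombinant human AKR1C3 (E. coli GST fusion, GST removed; ~1 nM) preincubated 15 min with compound, then NADPH 10 μM and Coumberone 0.3 μM (final), 22 °C, typically 90 min, in 50 mM K-phosphate pH 7. Stopped with EM-1404 (1 μM final); Coumberol fluorescence read at 520 nm (ex 380 nm), normalized to no-inhibitor and no-enzyme controls.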
The term IC50 denotes the concentration at which inhibition is half-maximal. As for `Cc1ccc(Cl)cc1S(=O)(=O)N1CCN(C(=O)c2cnn[nH]2)CC1(C)C` [Example 129, {4-[(5-chloro-2-methylphenyl)sulfonyl]-3,3-dimethylpiperazin-1-yl}(1H-1,2,3-triazol-5-yl)methanone], the half-inhibitory concentration (IC50) came to 6 nM. Turning to `CC1(C)CN(C(=O)c2c[nH]nn2)CCN1S(=O)(=O)c1cccc(Cl)c1` [Example 21, {4-[(3-chlorophenyl)sulfonyl]-3,3-dimethylpiperazin-1-yl}(1H-1,2,3-triazol-4-yl)methanone], the concentration for half-maximal inhibition (IC50) stood at 3 nM.

On to `Cc1cccc(S(=O)(=O)N2CCN(C(=O)c3cnn[nH]3)CC2(C)C)c1` [Example 33, {3,3-dimethyl-4-[(3-methylphenyl)sulfonyl]piperazin-1-yl}(1H-1,2,3-triazol-5-yl)methanone], for which the concentration for half-maximal inhibition (IC50) worked out at 10 nM.
